Results on 2 molecules are retold here after patent publication US4395969A (priority 1981, dated 1983).

In one data set the test system is coho salmon. Kind of data set: Static bioassay, lethal concentration to coho salmon. The format is in vivo, Oncorhynchus kisutch. The following applies: 10 C. On the procedure:
(§1) Bioassays utilized water from an artesian well at Moscow, Idaho and from the headwaters of the Palouse River, also in Idaho. The chemical characteristics of the artesian water were analyzed as follows: Total hardness 67-120 mg/l; total dissolved solids, 160-175 mg/l; and pH 7.1. The chemistry of the Palouse River water was analyzed as follows: total hardness 17 mg/l; methyl orange alkalinity 26 mg/l; total dissolved solids, 32 mg/l and pH, 7.0.
(§2) Fish were acclimated to test temperatures, usually at 5, 7.5, 10, 15 and 20 degrees Celsius (C), at least 60 hours before exposure to toxicants. For fish and crayfish four water baths regulated the temperature of assay aquaria. Each water bath contained a battery of 20 identical 19-liter clear glass containers or 11.4-liter plastic aquaria lined with disposable polyethylene bags and covered with Plexiglass lids to reduce evaporation. For larger fish and large numbers of fish the bioassays were made in two temperature controlled rooms that contained a series of 700-liter circular fiberglass vats and a series of 76- and 91-liter plastic containers.
(§3) Standard bioassay techniques were used in sorting fish and conducting the tests. Fish were placed in aerated test aquaria overnight to permit fish to recover from stress due to handling and to deprive them of food. The average load varied but most bioassays were conducted with about 1 g of fish per liter of water.
(§4) Aliquots of organophosphates were dissolved in ethanol and dispensed to the aquaria to provide concentrations suitable for obtaining the LC0 and LC50 of desirable fish and the LC50 and LC100 of target fish. Control fish were conditioned in the same manner as the test fish, but no chemical was added to the control vessels during the assays. After the addition of a chemical, observations were made mainly at 3, 6, 12, 24, 48, 96, and 192 h. The weight and fork length of fish were obtained when fishes were sacrificed.
(§5) Delineation bioassays determined primarily the LC50 and LC100 of sucker and stickleback and the LC0 and LC50 of salmonids.
(§6) The statistical LC1, LC50, and LC99 were interpolated and/or extrapolated using probit graph paper to approximate the LC0, LC50, and LC100 when the latter set of values was not closely determined by single concentrations in a series.
(§7) Threespine stickleback, brook stickleback, bridgelip sucker, white sucker, chinook salmon, coho salmon, sockeye salmon, kokanee, Kamloops trout, cutthroat trout, and brook trout were treated with various concentrations of 2, 2, 2, 1-tetrachloroethyl diethyl phosphate and at various temperatures to determine approximate selectivity and safety indices. The approximate LC50 and LC100 of the target fishes (threespine and brook sticklebacks and bridgelip and white suckers) are tabulated in Table 5. The 96-hour selectivity and safety indices of selected species of salmonids versus the threespine stickleback are tabulated in Table 7.

Assay in data set [1]: as above
The settings on record: coho salmon, water, 10 C. The format is in vivo, Oncorhynchus kisutch. On the procedure: as §1, §2, §3, §4, §5, §6, §7

Another data set has as its system Arctic grayling. Kind of data set: Exploratory bioassay, Arctic grayling. It is filed as in vivo, Thymallus arcticus. The settings on record: 10 μg/l; 48 h. On the procedure: (§8) Cursory bioassays were made with small numbers of other fishes and a crayfish (Pacifasticus klamathensis) to check on the universal selectivity of the toxicants. The fishes included Arctic grayling (Thymallus arcticus), longnose sucker (C. catastomus), largescale sucker, (C. macrocheilus), and spotted sucker (Minytrema melanops).
(§9) Three longnose suckers (about 125 mm) and three Arctic grayling (about 125 mm) were exposed to 10 μg/l of 2, 2, 2, 1-tetrachloroethyl diethyl phosphate. The suckers died between 14 and 22 hours at 13 C. The grayling were not affected in 48-hour biassays.

The next data set deals with kokanee. The experiment in a line: Static bioassay, lethal concentration to kokanee. It is filed as in vivo, a land-locked subspecies of sockeye salmon. The settings on record: 15 C. On the procedure:
as §1, §2, §3, §4, §5, §6, §7

A short description of data set [2]: Static bioassay, lethal concentration to kokanee. It is filed as in vivo, a land-locked subspecies of sockeye salmon. The following applies: kokanee, water, 15 C. Here is the method: as §1, §2, §3, §4, §5, §6, §7
The next data set relates to stickleback. The experiment in a line: Deactivation with activated carbon, survival of stickleback. The format is in vivo. The following applies: 2 mg/l; for Mean survival time, bioassay started 18 hours after chemical was added / Mean survival time, bioassay started when chemical was added: river water, 15 C. On the procedure: A second lot of 5 fish was added to each aquarium 18 hours after the first lot of 10 fish had died or lost their equilibrium. As the life of the first lot of fish was short, the test water was only slightly conditioned by the dying fish and any error introduced by this procedure was relatively small.

For another data set, the system named is chinook salmon. The following applies: chinook salmon, in vivo, 96 h.
Another data set concerns carp. Kind of data set: Bioassay, carp. It is filed as in vivo, Cyprinus carpio. The following applies: for selectivity to carp: in vivo. Here is the method: In a later bioassay a concentration of 1 mg/l of 2, 2-dichlorovinyl diethyl phosphate killed a 20 g carp (68 mm) in 10 l of artesian well water (load, 2.0 g/l) at 10 C. in 30 hours.
A subsequent series of bioassays tested concentrations of 0.0, 0.6, 0.8, 1.0, 1.5 and 2.0 mg/l of 2, 2-dichlorovinyl diethyl phosphate with larger carp (fork length range, 115-150 mm; mean weight, 44 g) using 10 fish per concentration (load, 0.7 g/l) and artesian well water at 10 C. A concentration of 2.0 mg/l of the chemical killed 100 percent of the carp in 24 hours and a concentration of 1.5 mg/l killed 90 percent of them in […] and 100 percent in 72 hours. No fish died in the control or at a concentration of 0.6 mg/l in 192-hour bioassays. In contrast the LC0 of salmonids exposed to 2, 2-dichlorovinyl diethyl phosphate varies between 4 and 8 mg/l in 48-hour bioassays and 2 and 6 mg/l in 96-hour bioassays at 10 C. (Table 2).

Another data set relates to longnose sucker. Kind of data set: Exploratory bioassay, longnose sucker. The settings on record: less than 24 h; 15 C; 47 to 61 mm. It is filed as in vivo, C. catastomus. Here is the method:
as §8
A series of 24-hour bioassays was made with the longnose sucker (1 fish per aquarium) at a concentration range of 0.1 mg/l to 4.5 mg/l of 2, 2-dichlorovinyl diethyl phosphate. The chemical killed the longnose sucker (47 to 61 mm) at a concentration of 0.2 mg/l and higher in less than 24 hours at 15 C.
as §9

The nature of another data set: in vivo. The following applies: steelhead trout.

Take `CCOP(=O)(OCC)OC(Cl)C(Cl)(Cl)Cl` (stereo not shown) [2,2,2,1-tetrachloroethyl diethyl phosphate]: the LC0 was 30 µg/L with coho salmon (48 h); 14 µg/L in the data set on coho salmon (96 h); 8 µg/L with coho salmon (192 h); 30 µg/L in the data set on kokanee (48 h); 20 µg/L in the data set on kokanee (96 h); 20 µg/L with kokanee (192 h). Also, the values for the LC50 at 96 h in data set [1] (96 h) and in data set [2] (96 h) were 0.023 µg/mL and 0.03 µg/mL, respectively. Further, the median lethal concentration (LC50) at 192 h was 0.015 µg/mL in data set [1] (192 h) and 0.027 µg/mL in data set [2] (192 h). Further, the effect on grayling result in the data set with Arctic grayling is on record as “not affected”. This molecule also gave an LC50 at 48 h in [2] (48 h) of 0.04 µg/mL.
For the molecule `CCOP(=O)(OC=C(Cl)Cl)OCC` [2,2-dichlorovinyl diethyl phosphate], the “effect of activated carbon on mortality” value in the data set with stickleback is “delayed mortality”. Further, in the data set on stickleback (8 and 32 mg/l of carbon), the “survival time after 18-hour deactivation period” value was “about tripled”. For the same molecule, the “Mean survival time, bioassay started 18 hours after chemical was added” value stood at 9.5 h with stickleback (activated carbon 0 mg/l); 8.0 h in the data set with stickleback (activated carbon 4 mg/l); 33.5 h in the data set on stickleback (activated carbon 8 mg/l); 95.0 h in the data set with stickleback (activated carbon 32 mg/l, 1 fish did not die (observed 11 days)). For the same molecule, the “Mean survival time, bioassay started when chemical was added” value was found to be 7.5 h in the data set with stickleback (activated carbon 0 mg/l); 9.2 h in the data set on stickleback (activated carbon 4 mg/l); 10.8 h in the data set with stickleback (activated carbon 8 mg/l); 12.0 h in the data set on stickleback (activated carbon 16 mg/l); 22.0 h with stickleback (activated carbon 32 mg/l). Further, the LC50 in the data set with chinook salmon was found to be 3.4 mg/L. Besides, in the data set on carp (0.6 mg/l, 192 h, artesian well water, 10 C), the carp mortality entry is reported as “No fish died”. Further, in the data set with carp (1 mg/l, 20 g carp, artesian well water, 10 C), the “time in which carp was killed” value was 30 h. In addition, the carp killed in the data set with carp (1.5 mg/l, 72 h, artesian well water, 10 C) is 100%; in the data set on carp (1.5 mg/l, 96 h, artesian well water, 10 C), 90%; with carp (2.0 mg/l, 24 h, artesian well water, 10 C), 100%. For the same molecule, the selectivity to carp entry in the data set with carp is “specific for the carp and bullhead catfish”; in the data set on carp (listed as 2, 2-dichlorovinyl diethyl phosphate), “the carp died first”. In the data set with longnose sucker, the “concentration that killed longnose sucker” value was no less than 0.2 mg/L. The same molecule displayed a median lethal concentration (LC50) at 96 h in the data set “in vivo” of 7.1 µg/mL. In addition, in “in vivo”, the 50% lethal concentration (LC50) at 192 h was determined as 2.8 µg/mL.
